“And” between values parts separate entries of the source, which are not always exact repeats. Equal values may be shown once.
Assay: impurities levels (Mesna disulphide percentage) of lyophilizate Mesna compositions
Type: physicochemical
Settings: content in composition
Experimental: Measurements of Mesna disulfide percentage were conducted for different Mesna lyophilizates made according to the present invention. The compositions of the tested Mesna lyophilizates comprised 125 mg or 250 mg of Mesna in 2 ml Water for Injection. Other tested Mesna lyophilizates compositions further comprised trehalose or Mannitol. […] Any slightly higher increase was of maximum 0.5% compared to the Mesna disulfide percentage measured for the pharmaceutical grade Mesna (Table 2). […] In addition, the sum of Mesna disulphide percentage and other impurities percentage was also always lower than said maximum of 3%.

MESNA: 98.82% and 98.80% and 98.96%
Other impurities: 0.15% and 0.20% and 0.19%
Mesna disulphide (stability marker): 1.03% and 1.00% and 0.85%
Compound: O=S(=O)([O-])CCS.[Na+] [Mesna P, Sodium 2-mercaptoethanesulfonate]
